In PubChem BioAssay AID624344 (Sanford-Burnham Center for Chemical Genomics, 2012):
Activity calls are given as the source filed them. The rule behind the calls is not given here.

Key:
Cytotoxicity = test: NFkB reporter suppression in cystic fibrosis bronchial cells – cell-based, uHTS hits, panel, cytotoxicity readout, dose response (AID 624344); details: CF bronchial epithelial cells, mean of runs
[1] = as above; details: CF bronchial epithelial cells, PAF-induced NFkB reporter inhibition; with PAF, mean of runs

CC(C)OC(=O)c1cccc(C(=O)Nc2cccc(NC(=O)c3cccc(C(=O)OC(C)C)n3)n2)n1
IC50 (Cytotoxicity): > 79 µM (inactive)
IC50 [1]: 4.5 µM

CCCCNc1c(-c2cccc(-c3ccc(OC)cc3)c2)nc2ccc(C)cn12
IC50 (Cytotoxicity): 1.72 µM
IC50 [1]: 4.98 µM

COc1ccc(-c2cn[nH]c2-c2ccc(OC)cc2)cc1
IC50 (Cytotoxicity): 63.5 µM (inactive)
IC50 [1]: 2.53 µM

CC(=O)Nc1nc(C)c(-c2csc(Nc3cccc(C(C)=O)c3)n2)s1
IC50 (Cytotoxicity): 40.1 µM
IC50 [1]: 0.538 µM

Cc1cc(N2C(=O)C(O)=C(C(=O)c3ccc(C)o3)C2c2cccc(Oc3ccccc3)c2)no1 (configuration not stated)
IC50 (Cytotoxicity): 41.7 µM
IC50 [1]: 10.6 µM

O=C(Nc1ccc(C(=O)N2CCOCC2)cc1)Nc1cccc(C(F)(F)F)c1
IC50 (Cytotoxicity): > 79 µM (inactive)
IC50 [1]: 1.69 µM

Cc1ccc2occ(/C=N/NC(=O)c3ccccc3C)c(=O)c2c1
IC50 (Cytotoxicity): 43.2 µM
IC50 [1]: 1.36 µM

COc1cc(OC)cc(C(=O)N[C@H](C(=O)Nc2nc3ccccc3[nH]2)C(C)C)c1
IC50 (Cytotoxicity): 41.1 µM
IC50 [1]: inactive

O=C(Nc1ccc(N2CCN(C(=O)c3ccccc3F)CC2)cc1)c1cncc(Br)c1
IC50 (Cytotoxicity): 54.7 µM (inactive)
IC50 [1]: 2.67 µM

COc1cc(C2c3cc4c(cc3C3OC(=O)C2C3CO)OCO4)cc(OC)c1OC (configuration not stated)
IC50 (Cytotoxicity): > 79 µM (inactive)
IC50 [1]: inactive

CCOC(=O)c1c(C)c2c(=O)[nH]cnc2n1-c1ccccc1
IC50 (Cytotoxicity): 13.9 µM
IC50 [1]: 1.89 µM

CC(=O)Oc1ccc(N(C(C)=O)S(=O)(=O)c2ccc(Cl)cc2)c2ccccc12
IC50 (Cytotoxicity): 22.8 µM
IC50 [1]: 7.37 µM

CC(=O)Oc1c(Cl)cc(N(C(C)=O)S(=O)(=O)c2ccccc2)c2ccccc12
IC50 (Cytotoxicity): 8.93 µM
IC50 [1]: 7.68 µM

Cn1nnnc1Sc1ncnc2scc(-c3ccc[nH]3)c12
IC50 (Cytotoxicity): 6.95 µM
IC50 [1]: 14.7 µM

COc1cccc(-c2nnc3sc(C4CCCCC4)nn23)c1
IC50 (Cytotoxicity): 10.6 µM
IC50 [1]: 0.82 µM

CC1CCCCN1c1ncnc(N)c1[N+](=O)[O-] (configuration not stated)
IC50 (Cytotoxicity): > 79 µM (inactive)
IC50 [1]: 3.66 µM

c1cncc(CNc2ncnc3ccc(-c4ccoc4)cc23)c1
IC50 (Cytotoxicity): 50.1 µM (inactive)
IC50 [1]: 1.39 µM

Cc1nc2sc(C(N)=O)c(N)c2c(C)c1CC(=O)c1ccccc1
IC50 (Cytotoxicity): > 79 µM (inactive)
IC50 [1]: 10.7 µM

c1cnc2ccc(-n3ccnc3)cc2c1
IC50 (Cytotoxicity): 60 µM (inactive)
IC50 [1]: 10.3 µM

COc1ccc2cc3c(N)nn(C(=O)c4ccc(F)cc4)c3nc2c1
IC50 (Cytotoxicity): 36.6 µM
IC50 [1]: 1.29 µM

Nc1cc2c(cc1Br)-c1ccccc1C2=NO
IC50 (Cytotoxicity): 60.6 µM (inactive)
IC50 [1]: 11.9 µM

COc1ccc(Oc2cc(NC(=O)c3nn(C)cc3[N+](=O)[O-])cc([N+](=O)[O-])c2)cc1
IC50 (Cytotoxicity): 1.69 µM
IC50 [1]: 3.27 µM

COc1ccc(NC(=O)c2cc3c(-c4ccc(OC)c(OC)c4)nn(C)c3s2)cc1OC
IC50 (Cytotoxicity): 5.55 µM
IC50 [1]: 6.06 µM

CN(C)c1ccc(C(C(=O)NCc2ccccc2)N(Cc2ccco2)C(=O)c2snc(C(N)=O)c2N)cc1 (configuration not stated)
IC50 (Cytotoxicity): 6.97 µM
IC50 [1]: 3.08 µM

COc1ccc(-c2cn[nH]c2-c2ccc(OC)cc2O)cc1
IC50 (Cytotoxicity): 46.4 µM
IC50 [1]: 2.92 µM

N#Cc1c(Br)n(C2OC(CO)C(O)C2O)c2ncnc(N)c12 (configuration not stated)
IC50 (Cytotoxicity): 3.58 µM
IC50 [1]: 0.444 µM

Cc1ccccc1C(=O)N1CCN(c2ccc(NC(=O)c3cccc(OC(C)C)c3)cc2)CC1
IC50 (Cytotoxicity): > 79 µM (inactive)
IC50 [1]: 6.7 µM

CCOc1ccccc1NC(=S)Nc1ccc2cn[nH]c2c1
IC50 (Cytotoxicity): 58.5 µM (inactive)
IC50 [1]: 5.7 µM

Cc1nnc(Sc2nc3ccccc3o2)c2ccccc12
IC50 (Cytotoxicity): 5.61 µM
IC50 [1]: 6.57 µM

CCN1CCN(Cc2ccc(NC(=O)c3ccc(C)c(NC(=O)c4cc(-c5ccc(Br)cc5)n[nH]4)c3)cc2C(F)(F)F)CC1
IC50 (Cytotoxicity): 42.5 µM
IC50 [1]: 2.77 µM

c1cc(-c2nnc3sc(C4CCCCC4)nn23)ccn1
IC50 (Cytotoxicity): > 79 µM (inactive)
IC50 [1]: 3.45 µM

O=C(NCc1ccco1)c1nc2c(nnn2Cc2ccccc2Cl)c(=O)[nH]1
IC50 (Cytotoxicity): 5.1 µM
IC50 [1]: 1.46 µM

CCOC(=O)C1=C(CC)Nc2ccccc2N=C1NC(=O)c1oc2ccccc2c1C
IC50 (Cytotoxicity): 6.1 µM
IC50 [1]: 4.43 µM

COc1cccc(-c2cnc3c(NC=O)cc(-c4ccc(OC)cc4OC)cn23)c1
IC50 (Cytotoxicity): 26 µM
IC50 [1]: 14.2 µM

CCC(C)Oc1cc(-c2ccnc(Nc3cccc(Cl)c3)n2)ccn1 (configuration not stated)
IC50 (Cytotoxicity): 5.62 µM
IC50 [1]: 3.28 µM

Cc1nc(N2CCC(C(N)=O)CC2)c2c(-c3cccs3)csc2n1
IC50 (Cytotoxicity): 33.5 µM
IC50 [1]: 3.23 µM

COc1ccc(-n2ncc3c(N4CCN(Cc5ccccc5)CC4)ncnc32)cc1
IC50 (Cytotoxicity): 6.95 µM
IC50 [1]: 3.85 µM

Cc1c(C(=O)OC2CCCC2)[nH]c2c1C(=O)CC(c1ccco1)C2 (configuration not stated)
IC50 (Cytotoxicity): 46.3 µM
IC50 [1]: inactive

Cc1cc(N2CCOCC2)c2c(N)c(Br)cc(C)c2n1
IC50 (Cytotoxicity): 20 µM
IC50 [1]: 0.729 µM

C=C(c1ccc2nc(NC(=O)OC)[nH]c2c1)c1cccs1
IC50 (Cytotoxicity): 25.6 µM
IC50 [1]: 5.04 µM

COc1ccc(-c2cc(=O)oc3cc(O)ccc23)cc1
IC50 (Cytotoxicity): 46.9 µM
IC50 [1]: 1.89 µM
